In PubChem BioAssay AID1845197 (Molecular Pharmacology Branch, DTP, NCI, 2023):

Test system: 349418-098-R tumor spheroid viability
Assay: Anticancer human tumor 349418-098-R patient-derived lung adenocarcinoma cell line growth inhibition
Details: spheroids with HUVEC and MSC; for IC50: curve of first compound; for viability, T/C: stronger effect = lower value
Method in brief: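 Complex spheroids of malignant cells with endothelial cells and mesenchymal stem cells; agents alone or combined, from near clinical Cmax (or 10 microM if unknown) down in half-log steps, 0.25% DMSO final.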
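Note: spheroids exposed to compound for 7 days before measurement.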
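Throughout, for viability, T/C: percent of vehicle control viability with 100% = DMSO-treated spheroids.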

Question: For [2H]c1nc(C)nc([2H])c1-c1cc(NC[C@@H](C)c2cccc3c(C(=O)NC)ccnc23)ncn1 + COc1cc2c(cc1O)CCNC21CSC2c3c(OC(C)=O)c(C)c4c(c3C(COC1=O)N1C(O)C3Cc5cc(C)c(OC)c(O)c5C(C21)N3C)OCO4, which IC50 (second compound 30 pM) is on record?
Answer: Its IC50 is greater than 10000 nM.

Question: What about the IC50 (second compound 94.9 pM) of the same compound?
Answer: Its IC50 is greater than 10000 nM.

Question: What about the IC50 (second compound 0.0003 µM) of the same compound?
Answer: Its IC50 is greater than 10000 nM.

Question: What about the IC50 (second compound 0.000949 µM) of the same compound?
Answer: Its IC50 is less than 31.6 nM.

Question: What about the IC50 (second compound 0.003 µM) of the same compound?
Answer: Its IC50 is less than 31.6 nM.

Question: What about the viability, T/C (second compound 30 pM, first compound 0.0316 µM) of the same compound?
Answer: Its viability, T/C is 110%.

Question: What about the viability, T/C (second compound 30 pM, first compound 0.1 µM) of the same compound?
Answer: The viability, T/C was 98.4%.

Question: And the viability, T/C (second compound 30 pM, first compound 0.316 µM)?
Answer: Its viability, T/C is 111%.

Question: What about the viability, T/C (second compound 30 pM, first compound 1 µM) of the same compound?
Answer: Its viability, T/C is 107%.

Question: What about the viability, T/C (second compound 30 pM, first compound 3.16 µM) of the same compound?
Answer: Its viability, T/C is 98.2%.

Question: What about the viability, T/C (second compound 30 pM, first compound 10 µM) of the same compound?
Answer: The viability, T/C was 105%.

Question: What about the viability, T/C (second compound 94.9 pM, first compound 0.0316 µM) of the same compound?
Answer: The viability, T/C was 99%.

Question: And the viability, T/C (second compound 94.9 pM, first compound 0.1 µM)?
Answer: Its viability, T/C is 99.5%.

Question: And the viability, T/C (second compound 94.9 pM, first compound 0.316 µM)?
Answer: Its viability, T/C is 94.2%.

Question: And the viability, T/C (second compound 94.9 pM, first compound 1 µM)?
Answer: Its viability, T/C is 107%.

Question: What about the viability, T/C (second compound 94.9 pM, first compound 3.16 µM) of the same compound?
Answer: Its viability, T/C is 103%.

Question: And the viability, T/C (second compound 94.9 pM, first compound 10 µM)?
Answer: Its viability, T/C is 98.7%.

Question: What about the viability, T/C (second compound 0.0003 µM, first compound 0.0316 µM) of the same compound?
Answer: The viability, T/C was 96.1%.

Question: What about the viability, T/C (second compound 0.0003 µM, first compound 0.1 µM) of the same compound?
Answer: The viability, T/C was 93.7%.

Question: What about the viability, T/C (second compound 0.0003 µM, first compound 0.316 µM) of the same compound?
Answer: Its viability, T/C is 92.7%.

Question: What about the viability, T/C (second compound 0.0003 µM, first compound 1 µM) of the same compound?
Answer: Its viability, T/C is 93.6%.

Question: And the viability, T/C (second compound 0.0003 µM, first compound 3.16 µM)?
Answer: Its viability, T/C is 88%.

Question: And the viability, T/C (second compound 0.0003 µM, first compound 10 µM)?
Answer: The viability, T/C was 86.2%.

Question: What about the viability, T/C (second compound 0.000949 µM, first compound 0.0316 µM) of the same compound?
Answer: Its viability, T/C is 0.58%.

Question: And the viability, T/C (second compound 0.000949 µM, first compound 0.1 µM)?
Answer: Its viability, T/C is 0.76%.

Question: And the viability, T/C (second compound 0.000949 µM, first compound 0.316 µM)?
Answer: The viability, T/C was 0.46%.

Question: And the viability, T/C (second compound 0.000949 µM, first compound 1 µM)?
Answer: Its viability, T/C is 0.58%.

Question: And the viability, T/C (second compound 0.000949 µM, first compound 3.16 µM)?
Answer: The viability, T/C was 0.39%.

Question: What about the viability, T/C (second compound 0.000949 µM, first compound 10 µM) of the same compound?
Answer: The viability, T/C was 0.49%.

Question: What about the viability, T/C (second compound 0.003 µM, first compound 0.0316 µM) of the same compound?
Answer: Its viability, T/C is 1.52%.

Question: And the viability, T/C (second compound 0.003 µM, first compound 0.1 µM)?
Answer: The viability, T/C was 1.57%.

Question: What about the viability, T/C (second compound 0.003 µM, first compound 0.316 µM) of the same compound?
Answer: Its viability, T/C is 1.35%.

Question: And the viability, T/C (second compound 0.003 µM, first compound 1 µM)?
Answer: Its viability, T/C is 1.29%.

Question: And the viability, T/C (second compound 0.003 µM, first compound 3.16 µM)?
Answer: Its viability, T/C is 1.6%.

Question: What about the viability, T/C (second compound 0.003 µM, first compound 10 µM) of the same compound?
Answer: The viability, T/C was 2.34%.

Question: Which results are given for Cc1sc2c(c1C)C(c1ccc(Cl)cc1)=NC(CC(=O)Nc1ccc(O)cc1)c1nnc(C)n1-2 (stereo not given) + CC[C@@]1(O)C(=O)OCc2c1cc1n(c2=O)Cc2cc3c(CN(C)C)c(O)ccc3nc2-1?
Answer: IC50 (second compound 0.003 µM): 71.4 nM; IC50 (second compound 0.00949 µM): 69.2 nM; IC50 (second compound 0.03 µM): 41.6 nM; IC50 (second compound 0.0949 µM): < 9.49 nM; IC50 (second compound 0.3 µM): < 9.49 nM; viability, T/C (second compound 0.003 µM, first compound 0.00949 µM): 96.2%; viability, T/C (second compound 0.003 µM, first compound 0.03 µM): 83.1%; viability, T/C (second compound 0.003 µM, first compound 0.0949 µM): 39.1%; viability, T/C (second compound 0.003 µM, first compound 0.3 µM): 7.85%; viability, T/C (second compound 0.003 µM, first compound 0.949 µM): 0.87%; viability, T/C (second compound 0.003 µM, first compound 3 µM): 0.47%; viability, T/C (second compound 0.00949 µM, first compound 0.00949 µM): 92.4%; viability, T/C (second compound 0.00949 µM, first compound 0.03 µM): 78.1%; viability, T/C (second compound 0.00949 µM, first compound 0.0949 µM): 40%; viability, T/C (second compound 0.00949 µM, first compound 0.3 µM): 6.43%; viability, T/C (second compound 0.00949 µM, first compound 0.949 µM): 0.61%; viability, T/C (second compound 0.00949 µM, first compound 3 µM): 0.48%; viability, T/C (second compound 0.03 µM, first compound 0.00949 µM): 77.9%; viability, T/C (second compound 0.03 µM, first compound 0.03 µM): 61.7%; viability, T/C (second compound 0.03 µM, first compound 0.0949 µM): 20.9%; viability, T/C (second compound 0.03 µM, first compound 0.3 µM): 5.67%; viability, T/C (second compound 0.03 µM, first compound 0.949 µM): 0.64%; viability, T/C (second compound 0.03 µM, first compound 3 µM): 0.38%; viability, T/C (second compound 0.0949 µM, first compound 0.00949 µM): 12.6%; viability, T/C (second compound 0.0949 µM, first compound 0.03 µM): 16.2%; viability, T/C (second compound 0.0949 µM, first compound 0.0949 µM): 4.16%; viability, T/C (second compound 0.0949 µM, first compound 0.3 µM): 1.07%; viability, T/C (second compound 0.0949 µM, first compound 0.949 µM): 0.3%; viability, T/C (second compound 0.0949 µM, first compound 3 µM): 0.35%; viability, T/C (second compound 0.3 µM, first compound 0.00949 µM): 2.78%; viability, T/C (second compound 0.3 µM, first compound 0.03 µM): 2.56%; viability, T/C (second compound 0.3 µM, first compound 0.0949 µM): 1.45%; viability, T/C (second compound 0.3 µM, first compound 0.3 µM): 0.63%; viability, T/C (second compound 0.3 µM, first compound 0.949 µM): 0.55%; viability, T/C (second compound 0.3 µM, first compound 3 µM): 0.39%
